Results on 27 substances are retold here after patent publication US20100143262A1, “Method for Identifying Allergenic Proteins And Peptides” (priority 2008, published 2010).

The test system of experiment [1] is Humanized Rat Basophil Leukaemia (RBL) cells (clone RBL-703/21). Nature of the experiment: human RBL assay: β-hexosaminidase release of humanized RBL cells loaded with patients' serum IgE. The format is cell-based. As to conditions: for biological activity (% of patients): percentage of 78 patients' sera triggering β-hexosaminidase release, milk components 0.3 μg/ml; for extent of degranulation relative to the activity of the complete protein: synthetic alphaS1-casein-derived peptides. An excerpt:
A scientifically approved model to test biological reactivity of molecules is induction of histamine release from human basophil granulocytes (Purohit 2005). For this purpose a rat basophil leukaemia cell line expressing the α-chain of the human FcεRI receptor (Hoffmann et al., Int Arch Allergy Immunol, Vol 126(4), p. 277-285) was used. Different milk components (n=33) including whole milk extracts from different species, milk fractions, purified natural and recombinant cow's milk proteins, and recombinant protein fragments were tested. The percentages of 78 patients whose serum IgE antibodies trigger β-hexosaminidase release of the humanized RBL cells in response to the individual milk components were determined (FIG. 3).
(§1) Sera from 78 patients who were selected according to a positive case history, positive skin-prick reactions and determination of specific IgE to cow's milk extract using the CAP-FEIA System (Phadia, Uppsala, Sweden) were used. Sera were obtained from five adults and 73 children (30 female and 43 male) from Austria, Germany, Italy, Spain and France.
Humanized Rat Basophil Leukaemia (RBL) cells (clone RBL-703/21) were incubated in microtiter plates overnight at 37° C. (7% CO2, 95% humidity) with 50 μl human sera, diluted 1:10. Afterwards cells were washed and exposed to milk components, diluted to 0.3 μg/ml protein in Tyrodes buffer containing 50% D2O and 0.1% BSA/HAS for 1 hour at 37° C. (7% CO2, 95% humidity). Spontaneous release of the cells was also evaluated. Finally, the cell supernatants were incubated with 50 μl assay solution (0.1 M citric acid or sodium citrate, pH 4.5, 160 μM 4-methyl umbelliferyl-N-acetyl-β-D-glucosaminide) in new microtiter plates at 37° C. (7% CO2, 95% humidity) for 1 h. The reactions were stopped by addition of 100 μl glycine buffer per well and the fluorescence measured at λex: 360 and λem: 465 using a fluorescence microplate reader. The specific hexosaminidase release of each sample was calculated using the formula: [(FlS−FlSp):(FlZ−FlSp)]×100 (where […] is the fluorescence of the sample; FlSp is the fluorescence of the spontaneous release and FlZ is the fluorescence of the total release).

Experiment [2] relates to serum IgE of cow's milk allergic patients. Nature of the experiment: IgE binding capacity (IgE reactivity) of milk components with patients' sera. The following applies: sera of cow's milk allergic patients (n=78). Also on record: species or system human.
Description: as §1

A further experiment concerns patients' serum IgE. Nature of the experiment: microarray IgE reactivity testing of ALA-derived peptides. The format is binding, human. As to conditions: sera from the 36 patients with IgE reactivity to rALA. As for the experimental part:
IgE reactivity testing to ALA-derived peptides:IgE reactivities of the ALA-derived peptides were determined by microarray analysis as described (Schulmeister et al., J Immunol. 182(11):7019-29). In brief, milk components were spotted onto a capillary-flow membrane on an ordinary microscope glass slide and incubated with 25 μl of patients' sera. Bound IgE antibodies were detected with a fluorescence-conjugated anti-IgE antibody at a wavelength of 670 nm. The cut off level was set for each patient as the double value of the individual value gained with human serum albumin.
In order to identify IgE-reactive epitopes of ALA, we synthesized 8 peptides spanning the ALA sequence (Table 2). […] The IgE reactivity of the 8 overlapping peptides was evaluated by microarray analysis using sera from the 36 patients showing IgE reactivity to rALA. […] In total 19 of the 36 patients with IgE reactivity to rALA reacted at least with one ALA-derived synthetic peptide.

Experiment [3] concerns IgE of sera from cow's milk allergic patients. Briefly: dot blot IgE reactivity of nitrocellulose-dotted milk components. The following applies: 1 μg dotted; sera from three cow's milk allergic patients, 1:20. The format is binding, human. The text has this: In FIG. 6 a Mascot search and the identification of beta-casein-derived peptides in hydrolyzed cow's milk is depicted. At the top beta-casein, the only identified milk allergen in mass spectrometry, is mentioned with its molecular mass and calculated pI. Below the search parameters and the obtained sequence coverage of beta-casein are given. […] The beta-casein allergen was identified with peptide matches: HQPHQPLPPT (calculated mass of 1.25 kDa, corresponding to aa 160-170 of beta-casein), VYPFPGPIPN (calculated mass of 1.19 kDa, corresponding to aa 74-84 of beta-casein), SSSEE (calculated mass of 0.65 kDa, corresponding to aa 31-36 of beta-casein), and PVVVPP (calculated mass of 0.87 kDa, corresponding to aa 96-103 of beta-casein). In FIG. 7 IgE reactivity testing of these peptides is shown (Table 1: cas b-1, 2, 3 and 4; FIG. 7). […] IgE reactivity of nitrocellulose-dotted cow's milk (CM), recombinant beta-casein (rBC), synthetic beta-casein-derived peptides (cas b-1, cas b-2, cas b-3, cas b-4), and recombinant alphaS1-casein (rAS1C) were analysed by dot blot assay. Nitrocellulose-bound milk components were incubated with the sera from three cow's milk allergic patients (lanes 1, 2 and 3) and a non-allergic individual (lane C). Bound IgE antibodies were detected with ^125I-labeled anti-IgE antibodies. […] Furthermore, they are different from the published major IgE binding regions of beta-casein (aa 1-16, aa 83-92, aa 135-144; Chatchatee 2001). None of the other IgE-reactive milk allergens and allergen fragments obtained by screening of the cDNA expression library (FIG. 1) were detected in the hydrolyzed milk sample which therefore could be identified as a non-allergenic preparation.
Hydrolyzed milk formula was analyzed by reversed-phase HPLC using a nano liquid chromatography system (Ultimate, LC Packings Dionex, The Netherlands) connected to the nanospray interface of a HCT-Ultra mass spectrometer (Bruker Daltonik, Germany). The obtained mass spectra were searched against the SwissProt protein databank using MASCOT (Matrix Science, London, United Kingdom) software search algorithms. For dot blot analysis 1 μg of protein was dotted onto nitrocellulose, and incubated with sera from milk allergic patients diluted 1:20 in PBST (PBS, 0.5% v/v Tween 20). Bound IgE antibodies were detected with 1:15 diluted ^125I-labelled anti-human IgE antibodies (IBL, Germany).

Turning to “RPKHPIKHQGLPQEVLNENLLRFFVAPFPEVC [Cas 1, synthetic peptide of αS1-casein]”, in experiment [1], the “biological activity (% of patients)” value is 6.4 % of patients. In addition, in experiment [2], the “IgE binding (% of patients)” value was 43.6 % of patients.
Take “WCKDDQNPHSSNICNISCDK [Lac5, synthetic ALA-derived peptide]”: the “IgE binding (% of patients)” value in the experiment with patients' serum IgE is on record as 2.8 % of patients.
Consider “HQPHQPLPPTV [cas b-1, synthetic peptide of β-casein]”, for which the “IgE reactivity (dot blot)” value in experiment [3] is reported as “not IgE-reactive”.
Regarding alpha-casein [AC], the “biological activity (% of patients)” value in experiment [1] is recorded as 25.6 % of patients. Also, the “IgE binding (% of patients)” value in experiment [2] is 50.0 % of patients.
For sheep serum albumin [SSA], in that order: 2.6 % of patients and 1.3 % of patients.
Take recombinant kappa-casein [rKC]: the “biological activity (% of patients)” value in experiment [1] is listed as 6.4 % of patients. The “IgE binding (% of patients)” value in experiment [2] is reported as 21.8 % of patients.
In the case of “CLKKYKVPQLEIVPNSAEERLHSMKEGIHIAQQKE [Cas 4, synthetic peptide of αS1-casein]”, in experiment [1], the “biological activity (% of patients)” value is listed as 3.8 % of patients and the “extent of degranulation relative to the activity of the complete protein” value was “about a tenth”. In experiment [2], the “IgE binding (% of patients)” value is listed as 35.9 % of patients.
On to kappa-casein [KC], for which the “biological activity (% of patients)” value in experiment [1] was 25.6 % of patients. In addition, the “IgE binding (% of patients)” value in experiment [2] is 30.8 % of patients.
As to “LSSSEE [cas b-3, synthetic peptide of β-casein]”, the “IgE reactivity (dot blot)” value in experiment [3] is “not IgE-reactive”.
Turning to “LKGYGGVSLPEWVCTTFHTS [Lac2, synthetic ALA-derived peptide]”, in the experiment on patients' serum IgE, the “IgE binding (% of patients)” value is listed as 33.3 % of patients.
On the same count and under the same terms, for “EQLTKCEVFRELKDLKGYG [Lac1, synthetic ALA-derived peptide]” the value was 30.6 % of patients.
For “TFHTSGYDTQA1YQNNDSTE (TFHTSGYDTQAIYQNNDSTE) [Lac3, synthetic ALA-derived peptide]”, the “IgE binding (% of patients)” value in the experiment on patients' serum IgE is 0 % of patients.
Regarding “CPMIGVNQELAYFYPELFRQFYQLDAYPSGAWYYV [Cas 5, synthetic peptide of αS1-casein]”, in experiment [1], the “biological activity (% of patients)” value is on record as 5.1 % of patients and the “extent of degranulation relative to the activity of the complete protein” value is on record as “about a tenth”. Besides, the “IgE binding (% of patients)” value in experiment [2] is reported as 41.0 % of patients.
Regarding “ISCDKFLDDDLTDDIMCVKK [Lac6, synthetic ALA-derived peptide]”, the “IgE binding (% of patients)” value in the experiment with patients' serum IgE is 2.8 % of patients.
Regarding recombinant beta-lactoglobulin [rBLG], in experiment [1], the “biological activity (% of patients)” value is given as 12.8 % of patients. The “IgE binding (% of patients)” value in experiment [2] was 23.1 % of patients.
On the same counts, the results for bovine serum albumin [BSA] are 2.1 % of patients and 6.4 % of patients.
Take “VYPFPGPIIPNS [cas b-2, synthetic peptide of β-casein]”: the “IgE reactivity (dot blot)” value in experiment [3] was “not IgE-reactive”.
As to “LAHKALCSEKLDQWLCEKL [Lac8, synthetic ALA-derived peptide]”, the “IgE binding (% of patients)” value in the experiment on patients' serum IgE is listed as 11.1 % of patients.
On to alpha-lactalbumin [ALA], for which the “biological activity (% of patients)” value in experiment [1] is 11.5 % of patients. The “IgE binding (% of patients)” value in experiment [2] is recorded as 65.4 % of patients.
As to “PVVVPPFL [cas b-4, synthetic peptide of β-casein]”, in experiment [3], the “IgE reactivity (dot blot)” value is given as “not IgE-reactive”.
Consider “NDSTEYGLFQINNK1WCKDD (NDSTEYGLFQINNKIWCKDD) [Lac4, synthetic ALA-derived peptide]”, for which, in the experiment with patients' serum IgE, the “IgE binding (% of patients)” value is listed as 5.6 % of patients.
“PLGTQYTDAPSFSDIPNPIGSENSEKTTMPLWC [Cas 6, synthetic peptide of αS1-casein]”: in experiment [1], the “biological activity (% of patients)” value is reported as 7.7 % of patients and the “extent of degranulation relative to the activity of the complete protein” value is reported as “one fourth”. The “IgE binding (% of patients)” value in experiment [2] is 37.2 % of patients.
On to “MCVKKILDKVGINYWLAHKA [Lac7, synthetic ALA-derived peptide]”, for which the “IgE binding (% of patients)” value in the experiment with patients' serum IgE is 2.8 % of patients.
For recombinant alpha-lactalbumin [rALA], the “biological activity (% of patients)” value in experiment [1] is on record as 21.8 % of patients. The “release compared with natural counterpart” value in experiment [1] (recombinant versus natural alpha-lactalbumin) is “much higher release than its natural counterpart”. Besides, the “IgE binding (% of patients)” value is on record as 100.0 % of patients in the experiment with patients' serum IgE and 25.6 % of patients in experiment [2].
Regarding beta-lactoglobulin variant B [BLGB], the “biological activity (% of patients)” value in experiment [1] was 19.2 % of patients. The “IgE binding (% of patients)” value in experiment [2] is given as 51.3 % of patients.
Take “ISSSEEIVPNSVEQKHIQKEDVPSERYLGYEQLLRC [Cas 3, synthetic peptide of αS1-casein]”: in experiment [1], the “biological activity (% of patients)” value is listed as 2.6 % of patients and the “extent of degranulation relative to the activity of the complete protein” value is on record as “about a tenth”. The “IgE binding (% of patients)” value in experiment [2] is 46.2 % of patients.
Take “FGKEKVNELSKDIGSESTEDQAMEDIKQMEAES [Cas 2, synthetic peptide of αS1-casein]”: in experiment [1], the “biological activity (% of patients)” value is listed as 3.8 % of patients and the “extent of degranulation relative to the activity of the complete protein” value is “one fourth”. In addition, the “IgE binding (% of patients)” value in experiment [2] is on record as 15.4 % of patients.
